Measurements from patent publication US8993558B2, “Compositions comprising a calcium channel blocker or a calmodulin blocker for use in the removal of hyperplastic skin lesions” (priority 2008, dated 2015).
Counter-ions that a name gives are not always drawn.

Columns and labels:
[1] = tested on: outwardly-rectifying chloride channel; conditions: 50 microM; cited from earlier work
genital warts = experiment: Topical treatment of genital (veneral) warts in patients; format: in vivo, human
Protocol: (§1) A person applied 0.1 ml of Trifluoperazine Topical Gel 30 mg/ml twice daily topically to several genital warts and a skin tag in the right axillary area.
A person applied 0.1 ml of Diltiazem supplied in 3 ml syringes with removable caps dissolved at a concentration of 100 mg/ml in an ointment twice daily topically to several genital warts.

plantar wart = experiment: Topical treatment of plantar warts in patients
Protocol: The warts were 2-5 mm in diameter. The patient was instructed to apply the cream 2-3 times per day to the three plantar warts, Patient used the medication regularly for approximately 4 weeks.
A mixture of Diltiazem dissolved at a concentration of 100 mg/ml in an ointment was applied in small amounts directly to a single small 3 mm diameter plantar wart on sole under the 1st metatarsal-phallangeal joint on the left foot of a person. The patient applied the cream to the gauze pad of a bandage and then taped the bandage over the sole of the foot so that the Diltiazem 100 mg/ml ointment was in contact with the wart. The bandage was replaced daily after showering and this was continued for six weeks.
A person applied 0.1 ml of Trifluoperazine Topical Gel 30 mg/ml twice daily topically to a approximately […] plantar wart that was large enough to make walking painful.

skin tag = experiment: Treatment of skin tags in patients (injection or topical); format: in vivo, human
Protocol: A person had multiple skin tags around their neck where they wore a gold necklace. A mixture of Diltiazem dissolved at a concentration of 100 mg/ml in an ointment was given to the patient with instructions to apply the ointment 1-2 times per day in small amounts directly to the skin tags.
as §1

callouses = experiment: Topical treatment of callouses in patients; format: in vivo, human
Protocol: A person had thick painful callouses over the lateral aspect of the 1st metatarsal-phallangeal joint on both feet. A mixture of Diltiazem dissolved at a concentration of 100 mg/ml in an ointment was given to the patient with instructions to apply the ointment 2-3 times per day in small amounts directly to only the callous locate on the 1st metatarsal-phallangeal joint of the left foot, and specifically not to use the ointment on the right foot.
A recreational tennis player had bilateral thickened calluses over the right and left 5th distal metatarsal head of both feet. These callouses were causing their significant pain and disability when they played tennis. The patient was treated with Trifluoperazine and Felodipine impregnated bandages.
Initially a water-proof bandage on which the mixture of Trifluoperazine 30 mg/ml Gel was applied to the adsorbent pad of the bandage with the pad being sized to cover the thickest area of the callous over the was right 5th distal metatarsal head. The pad of the waterproof bandage was applied to the callous and patient was instructed to replace the bandage 1-2 times per day with a new Trifluoperazine impregnated bandage after each shower/bath.
The patient was then given a one month supply of water-proof bandages on which the mixture of Felodipine 100 mg/ml ointment had been applied to the adsorbent pad of the bandage with the pad being sized to cover the thickest area of the callous over the was on the left 5th distal metatarsal head. The pad of the waterproof bandage was applied to the callous and patient was instructed to replaced the bandage 1-2 times per day with a new Felodipine impregnated bandage after each shower/bath.

psoriatic plaques = experiment: Topical treatment of psoriatic plaques; format: in vivo, human
keloid [2] = experiment: Topical treatment of keloids in patients; format: in vivo, human; conditions: for keloid appearance: Example 17: 100 mg/ml ointment, keloid over mastoid process (Felodipine right, Diltiazem left); for keloid relapse: Example 17: follow up at 6 and 9 months
Protocol: A person had keloids that had formed over several areas of the donor site scar from a previous hair transplant several years ago over the occipital area of the scalp from mastoid process to mastoid process. The keloids over the mastoid process on right side were initially treated with Felodipine 100 mg/ml ointment. The patient had been given instructions to apply the Felodipine 100 mg/ml ointment several times per day to the right side only and the patient was seen weekly in follow up.

corn = conditions: person
keloid [3] = experiment: Topical treatment of keloids in patients; format: in vivo, human; conditions: Example 17: applied for two weeks twice daily to the donor surgical sites
P-glycoprotein = conditions: hepatocyte canalicular membrane; cited from earlier work
[4] = Example 18: Topical Gel 30 mg/ml, four weeks of use, follow up a month later
[5] = Example 13: 0.1 ml Topical Gel 30 mg/ml twice daily, three weeks

In the case of COc1cc2c(c(OC)c1OC)-c1ccc(OC)c(=O)cc1[C@@H](NC(C)=O)CC2 [colchicine], the “block of outwardly-rectifying chloride channel” value (“block” for short) [1] is given as “blocked”.

In the case of CC[C@]1(O)C[C@@H]2CN(CCc3c([nH]c4ccccc34)[C@@](C(=O)OC)(c3cc4c(cc3OC)N(C)[C@H]3[C@@](O)(C(=O)OC)[C@H](OC(C)=O)[C@]5(CC)C=CCN6CC[C@]43[C@@H]65)C2)C1 [vinblastine], the “block” value [1] is listed as “blocked”.

With COc1ccc([C@@H]2Sc3ccccc3N(CCN(C)C)C(=O)[C@@H]2OC(C)=O)cc1 [Diltiazem, (+)-cis-3-Acetoxy-5-(2-dimethylaminoethyl)-2,3-dihydro-2-(4-methoxyphenyl)-1,5-benzothiazapin-4(5H)-one hydrochloride] the genital wart clearing (genital warts; Example 19: 100 mg/ml ointment, follow up at 5 weeks) was “complete clearing of the genital warts”, the genital wart clearing (genital warts; Example 19: 0.1 ml of 100 mg/ml ointment twice daily, person, three weeks) was “significant clearing” and the plantar wart size (plantar wart; Example 5: 100 mg/ml ointment on bandage daily, 3 mm wart, person, after about two weeks) was “dramatically shrunk in size”. The plantar wart outcome (plantar wart; Example 5: 100 mg/ml ointment on bandage daily, person, six weeks) was “not detected”, the plantar wart recurrence (plantar wart; Example 5: person, reassessed after 3 months) was “no evidence of recurrence of the plantar wart” and the skin tags remaining (skin tag; Example 9: 100 mg/ml ointment 1-2 times per day, multiple neck skin tags, person, one month) was “only a few small skin tags remaining”. For the same molecule, the skin tag outcome (skin tag; Example 9: 100 mg/ml ointment off and on, person, after 3 months) was “completely cleared”, the callous thickness (callouses; Example 6: 100 mg/ml ointment 2-3 times per day, left foot only (right foot control unchanged), person, three weeks) was “dramatic reduction in the thickness of the callous” and the psoriatic plaque clearing (psoriatic plaques; Example 11: 100 mg/ml ointment, left leg) was “significant clearing”. The keloid appearance (keloid [2]; person, after 1 week) was “noticeable softening”, the keloid appearance (keloid [2]; after 2 weeks) was “noticeable flattening and continued softening” and the keloid appearance (keloid [2]; by six weeks) was “flattened to the level of the adjoining skin”. The keloid relapse (keloid [2]) was “no relapse of the initial cosmetic improvement”, the “pain associated with wearing shoes” value (corn; Example 7: 100 mg/ml ointment 2-3 times per day, one month) was “significant reduction in pain” and the corn thickness (corn; Example 7: 100 mg/ml ointment 2-3 times per day, second toe, one month) was “noticeable reduction in the thickness of the corn”. For the same molecule, the corn outcome (corn; Example 7: 100 mg/ml ointment off and on, after 6 months) was “the corn had dissappeared” and the “new keloid formation at FUE graft donor sites” value (keloid [3]) was “no new keloid formation”.

In the case of C=C[C@H]1C[N@@]2CC[C@H]1C[C@@H]2[C@@H](O)c1ccnc2ccc(OC)cc12 [quinidine], the “transport of permanently charged amphiphilic cations” value (P-glycoprotein) is listed as “inhibited”.

In the case of COc1cccc2c1C(=O)c1c(O)c3c(c(O)c1C2=O)C[C@@](O)(C(C)=O)C[C@@H]3O[C@H]1C[C@H](N)[C@H](O)[C@H](C)O1 [daunorubicin], the “transport of permanently charged amphiphilic cations” value (P-glycoprotein) is given as “inhibited” and the “block” value [1] is given as “blocked”.

In the case of CCOC(=O)C1=C(C)NC(C)=C(C(=O)OC)C1c1cccc(Cl)c1Cl (stereo not drawn) [Felodipine, Ethyl methyl 4-(2,3-dichlorophenyl)-1,4-dihydro-2,6-dimethylpyridine-3,5-dicarboxylate], the “pain when running and playing tennis” value (callouses; Example 14: 100 mg/ml ointment impregnated bandage 1-2 times per day, left foot, after 3 weeks) is reported as “pain free on both sides”, the psoriatic plaque clearing (psoriatic plaques; Example 11: Topical ointment 100 mg/ml, left hand and wrist) is reported as “significant clearing” and the keloid appearance (keloid [2]; person, after 1 week) is reported as “noticeable softening”. For the same molecule, the keloid appearance (keloid [2]; after 2 weeks) was “noticeable flattening and continued softening”, the keloid appearance (keloid [2]; by six weeks) was “flattened to the level of the adjoining skin” and the keloid relapse (keloid [2]) was “no relapse of the initial cosmetic improvement”. The “new keloid formation at FUE graft donor sites” value (keloid [3]) was “no new keloid formation”.

In the case of CN1CCN(CCCN2c3ccccc3Sc3ccc(C(F)(F)F)cc32)CC1.Cl.Cl [Trifluoperazine, 10-[3-(4-Methylpiperazin-1-yl)propyl]-2-trifluoromethyl-phenothiazine dihydrochloride], the genital wart clearing (genital warts; Example 18: 0.1 ml Topical Gel 30 mg/ml twice daily, person, three weeks) is reported as “significant clearing”, the genital wart clearing (genital warts; [4]) is reported as “complete clearing” and the plantar wart clearing (plantar wart; Example 13: 0.1 ml Topical Gel 30 mg/ml twice daily, person, three weeks) is reported as “significant clearing”. The “irritation or erythema around the lesion” value (plantar wart; [5]) was “no irritation or erythema”, the “pain on walking and weight bearing” value (plantar wart; [5]) was “weight bearing without pain” and the plantar wart outcome (plantar wart; Example 13: Topical Gel 30 mg/ml, stopped for the past two weeks, six weeks follow up) was “the wart was no longer visible”. The plantar wart recurrence (plantar wart; Example 13: gel not used for over 3 months, seen at 4 months) was “no recurrence of the wart”, the skin tag clearing (skin tag; Example 18: 0.1 ml Topical Gel 30 mg/ml twice daily, right axillary area, three weeks) was “significant clearing” and the skin tag clearing (skin tag; [4]) was “complete clearing”. For the same molecule, the “callous softness and thickness” value (callouses; Example 14: 30 mg/ml Gel impregnated bandage 1-2 times per day, right foot, person, within one week) was “a softening and a reduction in the thickness of the callous”, the pain or disability (callouses; Example 14: 30 mg/ml Gel impregnated bandage, right foot (untreated left side still painful), after two weeks) was “no longer having any pain or disability” and the callous thickness (callouses; Example 14: 30 mg/ml Gel impregnated bandage, right foot, after two weeks) was “had thinned”. The “pain while playing tennis” value (callouses; Example 14: 30 mg/ml Gel impregnated bandage, right foot, within one week) was “reduced pain while playing tennis”.
